Source: PubChem BioAssay AID1259407 (Chemical Carcinogenesis Research Information System (CCRIS), 2018)
Active and inactive are the calls of the source. No rule for the calls is given here.

Tested on: CCRIS mutagenicity, Ames/micronucleus/aberration tests
Test: CCRIS mutagenicity studies
[1] = Test System: AMES SALMONELLA TYPHIMURIUM, Strain/Indicator: TA1535, Metabolic Activation: NONE, Method: PREINCUBATION
[2] = Test System: AMES SALMONELLA TYPHIMURIUM, Strain/Indicator: TA1535, Metabolic Activation: NONE, Method: STANDARD PLATE
[3] = Test System: AMES SALMONELLA TYPHIMURIUM, Strain/Indicator: TA98, Metabolic Activation: NONE, Method: STANDARD PLATE
[4] = Test System: AMES SALMONELLA TYPHIMURIUM, Strain/Indicator: TA100, Metabolic Activation: NONE, Method: STANDARD PLATE

## CCOCCOC(=O)/C=C/c1ccc(OC)cc1
Test System: AMES SALMONELLA TYPHIMURIUM, Strain/Indicator: TA98, Metabolic Activation: HAMSTER, LIVER, S-9, AROCLOR 1254 (10%), Method: PREINCUBATION
  mutagenic call: inactive; negative
Test System: AMES SALMONELLA TYPHIMURIUM, Strain/Indicator: TA98, Metabolic Activation: NONE, Method: PREINCUBATION
  mutagenic call: inactive; negative
Test System: AMES SALMONELLA TYPHIMURIUM, Strain/Indicator: TA98, Metabolic Activation: RAT, LIVER, S-9, AROCLOR 1254 (10%), Method: PREINCUBATION
  mutagenic call: inactive; negative
Test System: AMES SALMONELLA TYPHIMURIUM, Strain/Indicator: TA100, Metabolic Activation: HAMSTER, LIVER, S-9, AROCLOR 1254 (10%), Method: PREINCUBATION
  mutagenic call: inactive; negative
Test System: AMES SALMONELLA TYPHIMURIUM, Strain/Indicator: TA100, Metabolic Activation: NONE, Method: PREINCUBATION
  mutagenic call: inactive; negative
Test System: AMES SALMONELLA TYPHIMURIUM, Strain/Indicator: TA100, Metabolic Activation: RAT, LIVER, S-9, AROCLOR 1254 (10%), Method: PREINCUBATION
  mutagenic call: inactive; negative
Test System: AMES SALMONELLA TYPHIMURIUM, Strain/Indicator: TA1535, Metabolic Activation: HAMSTER, LIVER, S-9, AROCLOR 1254 (10%), Method: PREINCUBATION
  mutagenic call: inactive; negative
[1]
  mutagenic call: inactive; negative
Test System: AMES SALMONELLA TYPHIMURIUM, Strain/Indicator: TA1535, Metabolic Activation: RAT, LIVER, S-9, AROCLOR 1254 (10%), Method: PREINCUBATION
  mutagenic call: inactive; negative
Test System: AMES SALMONELLA TYPHIMURIUM, Strain/Indicator: TA1537, Metabolic Activation: HAMSTER, LIVER, S-9, AROCLOR 1254 (10%), Method: PREINCUBATION
  mutagenic call: inactive; negative
Test System: AMES SALMONELLA TYPHIMURIUM, Strain/Indicator: TA1537, Metabolic Activation: NONE, Method: PREINCUBATION
  mutagenic call: inactive; negative
Test System: AMES SALMONELLA TYPHIMURIUM, Strain/Indicator: TA1537, Metabolic Activation: RAT, LIVER, S-9, AROCLOR 1254 (10%), Method: PREINCUBATION
  mutagenic call: inactive; negative

## NC(=S)NNC(N)=S
End Point: IN VITRO CHROMOSOMAL ABERRATIONS, Test System: CHINESE HAMSTER OVARY CELLS, Metabolic Activation: RAT, LIVER, S-9, AROCLOR 1254
  mutagenic call: inactive; negative

## c1ccc2c(c1)ccc1cccnc12
Test System: AMES SALMONELLA TYPHIMURIUM, Strain/Indicator: TA100, Metabolic Activation: RAT, LIVER, S-9, AROCLOR 1254, Method: STANDARD PLATE
  mutagenic call: inactive; negative
Test System: AMES SALMONELLA TYPHIMURIUM, Strain/Indicator: TA100, Metabolic Activation: RAT, LIVER, S-9, PCB, Method: STANDARD PLATE
  mutagenic call: active; positive
Test System: AMES SALMONELLA TYPHIMURIUM, Strain/Indicator: TA100, Metabolic Activation: RAT, LIVER, S-9, PHENOBARBITAL AND 5,6-BENZOFLAVONE, Method: PREINCUBATION
  mutagenic call: inactive; negative

## Oc1cc(O)cc(/C=C/c2ccc(O)c(O)c2)c1
Test System: Ames Salmonella typhimurium, Strain/Indicator: TA102, Metabolic Activation: None, Method: Preincubation
  mutagenic call: inactive; negative
Test System: Ames Salmonella typhimurium, Strain/Indicator: TA102, Metabolic Activation: Rat, Liver, S-9, Aroclor 1254 in 0.154 M KCl, Method: Preincubation
  mutagenic call: inactive; negative

## CNC(=O)C(C)SCCSP(=O)(OC)OC (stereo not drawn)
Test System: E. COLI, Strain/Indicator: WP2, Metabolic Activation: NONE, Method: STANDARD PLATE
  mutagenic call: active; positive
Test System: E. COLI, Strain/Indicator: WP2 UVRA, Metabolic Activation: NONE, Method: STANDARD PLATE
  mutagenic call: active; positive

## C/C=C1/C[C@@H](C)[C@](C)(OC(C)=O)C(=O)OC/C2=C/CN(C)CC[C@@H](OC1=O)C2=O
Test System: UDS RAT HEPATOCYTES, Strain/Indicator: THY INCORP, Metabolic Activation: NONE, Method: AUTORADIOGRAPHY
  mutagenic call: active; positive

## CN(Cc1cccc(Br)c1)N=O
Test System: AMES SALMONELLA TYPHIMURIUM, Strain/Indicator: TA1535, Metabolic Activation: HAMSTER, LIVER, S-9, AROCLOR 1254, Method: STANDARD PLATE
  mutagenic call: active; positive
[2]
  mutagenic call: inactive; negative

## CN=[N+](C)[O-]
Test System: AMES SALMONELLA TYPHIMURIUM, Strain/Indicator: TA100, Metabolic Activation: RAT, LIVER, S-9, KC500 OR PHENOBARBITAL, Method: LIQUID SUSPENSION
  mutagenic call: active; positive
Test System: AMES SALMONELLA TYPHIMURIUM, Strain/Indicator: TA1535, Metabolic Activation: HAMSTER, LIVER, S-9, AROCLOR 1254, Method: PREINCUBATION
  mutagenic call: inactive; negative
[1]
  mutagenic call: inactive; negative
[2]
  mutagenic call: inactive; negative
Test System: AMES SALMONELLA TYPHIMURIUM, Strain/Indicator: TA1535, Metabolic Activation: RAT, LIVER, S-9, AROCLOR 1254, Method: PREINCUBATION
  mutagenic call: inactive; negative
Test System: AMES SALMONELLA TYPHIMURIUM, Strain/Indicator: TA1535, Metabolic Activation: RAT, LIVER, S-9, KC500 OR PHENOBARBITAL, Method: LIQUID SUSPENSION
  mutagenic call: active; positive
Test System: AMES SALMONELLA TYPHIMURIUM, Strain/Indicator: YG7108, Metabolic Activation: NONE, Method: STANDARD PLATE
  mutagenic call: active; positive
Test System: E. COLI, Strain/Indicator: WP2 UVRA, Metabolic Activation: HAMSTER, LIVER, S-9, AROCLOR 1254, Method: PREINCUBATION
  mutagenic call: inactive; negative
Test System: E. COLI, Strain/Indicator: WP2 UVRA, Metabolic Activation: HAMSTER, LIVER, S-9, Method: PREINCUBATION
  mutagenic call: inactive; negative
Test System: E. COLI, Strain/Indicator: WP2 UVRA, Metabolic Activation: MOUSE, LIVER, S-9, AROCLOR 1254, Method: PREINCUBATION
  mutagenic call: inactive; negative
Test System: E. COLI, Strain/Indicator: WP2 UVRA, Metabolic Activation: MOUSE, LIVER, S-9, Method: PREINCUBATION
  mutagenic call: inactive; negative
Test System: E. COLI, Strain/Indicator: WP2 UVRA, Metabolic Activation: NONE, Method: PREINCUBATION
  mutagenic call: inactive; negative
Test System: E. COLI, Strain/Indicator: WP2 UVRA, Metabolic Activation: RAT, LIVER, S-9, AROCLOR 1254, Method: PREINCUBATION
  mutagenic call: inactive; negative
Test System: E. COLI, Strain/Indicator: WP2 UVRA, Metabolic Activation: RAT, LIVER, S-9, Method: PREINCUBATION
  mutagenic call: inactive; negative

## Cc1c(-c2cnccn2)ssc1=S
[3]
  mutagenic call: inactive; negative
Test System: AMES SALMONELLA TYPHIMURIUM, Strain/Indicator: TA98, Metabolic Activation: RAT, LIVER, S-9, AROCLOR 1254 OR PHENOBARBITOL, Method: STANDARD PLATE
  mutagenic call: inactive; negative
[4]
  mutagenic call: inactive; negative
Test System: AMES SALMONELLA TYPHIMURIUM, Strain/Indicator: TA100, Metabolic Activation: RAT, LIVER, S-9, AROCLOR 1254 OR PHENOBARBITOL, Method: STANDARD PLATE
  mutagenic call: inactive; negative
[2]
  mutagenic call: inactive; negative
Test System: AMES SALMONELLA TYPHIMURIUM, Strain/Indicator: TA1535, Metabolic Activation: RAT, LIVER, S-9, AROCLOR 1254 OR PHENOBARBITOL, Method: STANDARD PLATE
  mutagenic call: inactive; negative
Test System: AMES SALMONELLA TYPHIMURIUM, Strain/Indicator: TA1537, Metabolic Activation: NONE, Method: STANDARD PLATE
  mutagenic call: inactive; negative
Test System: AMES SALMONELLA TYPHIMURIUM, Strain/Indicator: TA1537, Metabolic Activation: RAT, LIVER, S-9, AROCLOR 1254 OR PHENOBARBITOL, Method: STANDARD PLATE
  mutagenic call: inactive; negative
Test System: AMES SALMONELLA TYPHIMURIUM, Strain/Indicator: TA1538, Metabolic Activation: NONE, Method: STANDARD PLATE
  mutagenic call: inactive; negative
Test System: AMES SALMONELLA TYPHIMURIUM, Strain/Indicator: TA1538, Metabolic Activation: RAT, LIVER, S-9, AROCLOR 1254 OR PHENOBARBITOL, Method: STANDARD PLATE
  mutagenic call: inactive; negative

## Cc1cc(-c2ccccc2)cc(C)c1N
[3]
  mutagenic call: inactive; negative
Test System: AMES SALMONELLA TYPHIMURIUM, Strain/Indicator: TA98, Metabolic Activation: RAT LIVER S-9, AROCLOR, Method: STANDARD PLATE
  mutagenic call: active; positive
[4]
  mutagenic call: inactive; negative
Test System: AMES SALMONELLA TYPHIMURIUM, Strain/Indicator: TA100, Metabolic Activation: RAT LIVER S-9, AROCLOR, Method: STANDARD PLATE
  mutagenic call: active; positive

## CC12CCC=C(C=O)C1(C=O)C2 (stereo not drawn)
[3]
  mutagenic call: active; positive
[4]
  mutagenic call: active; positive
